Assay results: ChEMBL document CHEMBL1123608, “In vivo antitumor activity of 6-benzyl-1,3-benzodioxole derivatives against the P388, L1210, B16, and M5076 murine models” (1987)
Calls of active or inactive are those of the source. The rule behind the calls is not given here.

Tests used:
Mus musculus [1] = assay: Percent increase in life span (ILS) was measured on P388 cells which were inoculated intraperitoneally in CD2F1 mice; format: functional
Mus musculus [2] = assay: In vivo antitumor activity against the M5076 reticulum cell sarcoma expressed as percent increase in life span at 4 mg/kg dose; format: functional
Mus musculus [3] = assay: In vivo antitumor activity against the L1210 leukemia cell line expressed as percent increase in life span; IA means inactive; format: functional, organism-based
Mus musculus [4] = assay: In vivo antitumor activity against the B16 melanoma cell line expressed as percent increase in life span; IA means inactive; format: functional, organism-based
Mus musculus [5] = assay: In vivo antitumor activity against the B16 melanoma cell line expressed as percent increase in life span at 1 mg/kg dose; format: functional
Mus musculus [6] = assay: Percent increase in life span (ILS) was measured on P388 cells which were inoculated intraperitoneally in CD2F1 mice at 8 mg/kg; format: functional; settings: P388, ip, route intraperitoneal
Mus musculus [7] = assay: The percent increase in life span on P388 cells which were inoculated intraperitoneally in CD2F1 mice at 400 mg/kg (tested in the same control) dose placed at ranking order 4; format: functional; settings: P388, ip, route intraperitoneal
Mus musculus [8] = assay: The percent increase in life span on P388 cells which were inoculated intraperitoneally in CD2F1 mice at 400 mg/kg dose placed at ranking order 1; format: functional; settings: P388, ip, route intraperitoneal
Mus musculus [9] = assay: In vivo antitumor activity against the B16 melanoma cell sarcoma expressed as percent increase in life span; IA means inactive; format: functional, organism-based
Mus musculus [10] = assay: In vivo antitumor activity against the M5076 reticulum cell sarcoma expressed as percent increase in life span; IA means inactive; format: functional, organism-based
Mus musculus [11] = assay: The percent increase in life span on P388 cells which were inoculated intraperitoneally in CD2F1 mice at 400 mg/kg dose placed at ranking order 3; format: functional; settings: P388, ip, route intraperitoneal
Mus musculus [12] = assay: In vivo antitumor activity against the L1210 leukemia cell line expressed as percent increase in life span at 200 mg/kg dose; format: functional
Mus musculus [13] = assay: The percent increase in life span on P388 cells which were inoculated intraperitoneally in CD2F1 mice at 200 mg/kg dose placed at ranking order 2; format: functional; settings: P388, ip, route intraperitoneal
Mus musculus [14] = assay: The percent increase in life span on P388 cells which were inoculated intraperitoneally in CD2F1 mice at 240 mg/kg dose placed at ranking order 1; format: functional; settings: P388, ip, route intraperitoneal
Mus musculus [15] = assay: The percent increase in life span on P388 cells which were inoculated intraperitoneally in CD2F1 mice at 100 mg/kg dose placed at ranking order 2; format: functional; settings: P388, ip, route intraperitoneal
Mus musculus [16] = assay: The percent increase in life span on P388 cells which were inoculated intraperitoneally in CD2F1 mice at 480 mg/kg dose placed at ranking order 1; format: functional; settings: P388, ip, route intraperitoneal
Mus musculus [17] = assay: The percent increase in life span on P388 cells which were inoculated intraperitoneally in CD2F1 mice at 240 mg/kg dose placed at ranking order 2; format: functional; settings: P388, ip, route intraperitoneal
Mus musculus [18] = assay: In vivo antitumor activity against the L1210 leukemia cell line expressed as percent increase in life span at 4 mg/kg dose; format: functional
Mus musculus [19] = assay: In vivo antitumor activity against the B16 melanoma cell line expressed as percent increase in life span at 10 mg/kg dose; format: functional
Mus musculus [20] = assay: In vivo antitumor activity against the M5076 reticulum cell sarcoma expressed as percent increase in life span at 32 mg/kg dose; format: functional
Mus musculus [21] = assay: In vivo antitumor activity against the L1210 leukemia cell line determined as number of cured out of the number tested at 4 mg/kg dose ( out of 10 mice); format: functional
Mus musculus [22] = assay: In vivo antitumor activity against the B16 melanoma cell line determined as number of cured out of the number tested at 8 mg/kg dose ( out of 6 mice); format: functional
Mus musculus [23] = species on record: Mus musculus; assay: P388 activity determined as number of cured out of the number tested in 6 CD2F1 mice; format: functional
Mus musculus [24] = assay: Percent increase in life span (ILS) was measured on P388 cells which were inoculated intraperitoneally in CD2F1 mice at 16 mg/kg; format: functional; settings: P388, ip, route intraperitoneal
Mus musculus [25] = assay: In vivo antitumor activity against the B16 melanoma cell line determined as number of cured out of the number tested at 10 mg/kg dose ( out of 10 mice); format: functional
Mus musculus [26] = assay: In vivo antitumor activity against the L1210 leukemia cell line expressed as percent increase in life span at 8 mg/kg dose; format: functional
Mus musculus [27] = assay: In vivo antitumor activity against the L1210 leukemia cell line determined as number of cured out of the number tested at 8 mg/kg dose ( out of 8 mice); format: functional
Mus musculus [28] = assay: In vivo antitumor activity against the B16 melanoma cell line expressed as percent increase in life span at 8 mg/kg dose; format: functional

O=c1[nH]cc(F)c(=O)[nH]1 [FLUOROURACIL]
ILS (Mus musculus [1]): 73%

COc1cc([C@@H]2c3cc4c(cc3[C@H](O)[C@H]3COC(=O)[C@H]23)OCO4)cc(OC)c1OC [PODOFILOX]
ILS at 4 mg/kg (Mus musculus [2]): 46% | ILS (Mus musculus [3]): inactive | ILS (Mus musculus [4]): inactive | ILS at 1 mg/kg (Mus musculus [5]): 28% | ILS at 8 mg/kg (Mus musculus [6]): 52%

COc1cc(C(C)c2cc3c(cc2OCCO)OCO3)cc(OC)c1OC (stereo not drawn)
ILS at 400 mg/kg (Mus musculus [7]): 49% | ILS at 400 mg/kg (Mus musculus [8]): 80% | ILS (Mus musculus [9]): inactive | ILS (Mus musculus [10]): inactive | ILS (Mus musculus [1]): 80% | ILS at 400 mg/kg (Mus musculus [11]): 61% | ILS at 200 mg/kg (Mus musculus [12]; Mus musculus, L1210, dose 200 mg/kg): 43% | ILS (Mus musculus [12]; dose 200 mg/kg): 33% | ILS at 200 mg/kg (Mus musculus [13]): 66%

CCCOc1cc2c(cc1C(C)c1ccc(OCC)cc1)OCO2 (stereo not drawn)
ILS (Mus musculus [1]): 41% | ILS at 240 mg/kg (Mus musculus [14]): 41% | ILS at 100 mg/kg (Mus musculus [15]): 26%

CCOc1cc2c(cc1C(C)(C)c1ccc(OC)cc1)OCO2
ILS at 480 mg/kg (Mus musculus [16]): 35% | ILS (Mus musculus [1]): 35% | ILS at 240 mg/kg (Mus musculus [17]): 25%

COc1cc([C@@H]2c3cc4c(cc3[C@@H](O[C@@H]3O[C@@H]5CO[C@@H](C)O[C@H]5[C@H](O)[C@H]3O)[C@H]3COC(=O)[C@H]23)OCO4)cc(OC)c1O [ETOPOSIDE]
ILS at 4 mg/kg (Mus musculus [18]): 118% | ILS at 10 mg/kg (Mus musculus [19]): > 185% | ILS at 32 mg/kg (Mus musculus [20]; Mus musculus, M5076, dose 32 mg/kg): 87% | ILS (Mus musculus [20]; dose 32 mg/kg): 72% | No. of cures (Mus musculus [21]): 2 | No. of cures (Mus musculus [22]): 3 | No. of cures (Mus musculus [23]): 3 | ILS at 16 mg/kg (Mus musculus [24]): 219% | No. of cures (Mus musculus [25]): 6 | ILS at 8 mg/kg (Mus musculus [26]): > 511% | No. of cures (Mus musculus [27]): 4 | ILS at 8 mg/kg (Mus musculus [28]): > 176%
